Test results published in patent publication US10849901B2, “Arf6 inhibitors and methods of synthesis and use thereof” (Navigen, Inc., priority 2014, dated 2020).
Where two headings read alike, the source gives them in different places. Blank lines part the entries; values can stand above or below the compound they belong to.

Experiments:
[1] = system: collagen-induced arthritis; assay: Mouse model of collagen-induced arthritis; format: in vivo; conditions: mice, 14 days; Compound 4 10, 30, 60 mg/kg BID; Enbrel 10 mg/kg QD
Description: In the experiment, mice were immunized with collagen on Days 1 and 21, and randomized to treatment groups on or around Day 28, then subject to fourteen days of treatment with a test compound. Vehicle (●), Compound 4 at 10 mg/kg (▴), Compound 4 at 30 mg/kg (▾), Compound 4 at 60 mg/kg (♦), or Enbrel (▪; 10 mg/kg) was given. Compound 4 was given twice daily (BID); Enbrel was given once daily (QD); and vehicle was given twice daily (BID).

Arf6 = Arf6 (Homo sapiens (Human), UniProt P62330); assay: Fluorometric assay for Arf6 nucleotide exchange catalyzed by ARNO Sec7 domain (GTP-BODIPY FL); format: biochemical; conditions: for inhibition at 10 µM: 20 nM assay, 10 μM concentration
Sequence of Arf6 (P62330 14-175): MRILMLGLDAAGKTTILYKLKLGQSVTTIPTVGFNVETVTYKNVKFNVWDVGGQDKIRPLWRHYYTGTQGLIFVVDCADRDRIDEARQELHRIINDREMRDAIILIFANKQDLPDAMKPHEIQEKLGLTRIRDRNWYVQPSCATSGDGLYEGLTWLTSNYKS
Description: FIGS. 1A-1D: Fluorometric high throughput assay for Arf6 nucleotide exchange catalyzed by ARNO Sec7 domain. FIG. 1A: Principle of the assay. FIG. 1B: SDS-PAGE analysis of N-terminally His-tagged Arf6(14-175) and ARNO(50-255) purified from the E. coli cultures by immobilized metal affinity chromatography. FIG. 1C: Correlation between signal intensity and ARNO concentration. The assay was performed using 50 mM Tris-HCl, pH 7.5, 1 mM MgCl2, 0.01% TX-100, 1% DMSO, 50 nM GTP-BODIPY FL, supplemented with ARNO-Sec7 at indicated concentrations in the absence or in the presence of 0.2 μM Arf6-GDP. Fluorescence intensities were monitored using a Synergy 4 plate reader (BioTek) at the excitation and emission wavelengths of 490 nm and 520 nm, respectively. FIG. 1D: Time course of apparent inhibitory potency of GDP. The assay was performed in automated mode using a Matrix PlateMate liquid handler.
The primary biochemical assay uses a fluorometric assay for monitoring the replacement of bound nucleotide with a fluorogenic GTP derivative bearing a BODIPY FL moiety, allowing for the identification of compounds that can inhibit this exchange (see FIG. 1A). In certain embodiments, the methods disclosed herein may exploit the reduction of intramolecular fluorescence quenching of the modified nucleotide upon its binding to the target protein (see, e.g., McEwen D P, Gee K R, Kang H C, Neubig R R. Fluorescent BODIPY-GTP analogs: real-time measurement of nucleotide binding to G proteins. Anal Biochem. 2001 Apr. 1; 291(1): 109-17).
The fluorometric assay formatted for 96-well microtiter plates has passed quality control based on the following criteria: i) S/B ratio of 4-fold and Z′-factor of 0.61; ii) linear correlation between signal intensity and ARNO concentration (see FIG. 1C); iii) sufficiently reproducible inhibitory effects of the reference inhibitor GDP for assay durations up to at least 1 hour (see FIG. 1D); and iv) lack of apparent fluorescence quenchers among 400 randomly selected compounds. The assay is amenable to automation with a throughput of approximately 5,000 data points per 8 hours.

[2] = system: oxygen-induced retinopathy; assay: Oxygen-induced retinopathy (OIR) in mice; format: in vivo; conditions: 5 μg intraocular Days 12 and 15, measured Day 17
Description: In the experiment, mice pups were placed in a 75% oxygen environment from Days 5-12. The mice were returned to a normal oxygen environment on Day 13. The test compounds were administered (5 μg) by intraocular injection on Days 12 and 15, and the area of neovascularization was measured on Day 17. Compound 38 was compared with SU4312 in oxygen-induced retinopathy (OIR) in mice (see FIG. 11). […]

[3] = system: VEGF-induced retinal permeability; assay: VEGF-induced retinal permeability in mice (Evans blue dye); format: in vivo
Description: (§1) In the experiment, VEGF (50 ng) and either Compound 38 or 65 (500 ng) or NAV-3745 (500 ng) were given to mice in a single intraocular injection. Evans blue dye (EBD) was given via IV approximately 6 hours after the injection, and the retinas were harvested after an additional 2 hours. Retinal permeability was measured on Day 2 after an overnight extraction of EBD in formamide, at OD 620-740 nm.
as §1, with “the test compound” for “either Compound 38 or 65 (500 ng) or NAV-3745 (500 ng)”, “injection. Avastin was given at a dose of 20 μg, Compound 38 at either 50 ng or 500 ng (as noted in FIG. 7), and SU4312 at 5 μg. As with the previous experiment,” for “injection.”

[4] = system: LPS-induced acute lung injury; assay: LPS-induced acute lung injury in mice (BALF analysis); format: in vivo; conditions: 24 hours after LPS, Compound 38 60 mg/kg, dexamethasone 5 mg/kg
Description: In the experiment, LPS (5 mg/kg) was given by intra-tracheal instillation. Dexamethasone (5 mg/kg) was given as a positive control 2 hours after the LPS. Bronchoalveolar fluid (BALF) was analyzed for cell count and protein 24 hours after the LPS.

[5] = system: VEGF-induced retinal permeability; assay: VEGF-induced retinal permeability in rats (Evans blue dye); format: in vivo; conditions: rat, not told, ip, 60 mg/kg
Description: In the experiment, VEGF (500 ng) and Avastin (200 μg) were given to rats in a single intraocular injection on Day 1. Compound 38 (60 mg/kg) was administered by IP injection 1 hour prior to VEGF on Day 1. Rats were given Evans blue dye (EBD) via IV infusion on Day 2, and the retinas were harvested after an additional 1.5 hours. The retinas were dissected and incubated overnight in formamide. Vascular leak was calculated on Day 3.

[6] = 20 nM Arf6 assay, read-out: IC50 (μM) 20 nM Arf6
[7] = 200 nM Arf6 assay, read-out: IC50 (μM) 200 nM Arf6

Compound: O=c1cc(-c2cccc(Oc3ccccc3)c2)[nH]c2c(-c3ccc(Cl)c(Cl)c3)c(C(F)(F)F)nn12 [Compound 4]
inflammation as measured by the arthritic index [1]: reduced inflammation | IC50 (Arf6; [6]): 0.52 µM | IC50 (Arf6; [7]): 0.46 µM | area of neovascularization [2]: reduced the area of neovascularization

Compound: CC(C)(C)c1ccc(S(=O)(=O)Nc2ccc(O)c3ccccc23)cc1 [Compound 126]
IC50 (Arf6; [7]): 6.7 µM

Compound: O=C(O)c1ccc(C2Nc3c(Br)cccc3C3C=CCC32)cc1 (stereo not drawn) [Compound 127]
IC50 (Arf6; [7]): 8 µM

Compound: Cn1cc(/C=C(\CC(=O)O)C2Nc3ccccc3S2)c(-c2ccc3c(c2)OCCCO3)n1 (stereo not drawn) [Compound 128]
IC50 (Arf6; [6]): 8.4 µM

Compound: O=c1c2c(-c3ccc(Cl)cc3)csc2[nH]c(=S)n1Cc1ccccc1 [Compound 129]
IC50 (Arf6; [7]): 9.7 µM

Compound: Cc1ccc(C(=O)OCc2cc(=O)n3cc(Br)ccc3n2)cn1 [Compound 130]
IC50 (Arf6; [6]): 9.9 µM

Compound: Cc1ccn2c(=O)cc(CSc3nc(C)cc(=O)[nH]3)nc2c1 [Compound 131]
IC50 (Arf6; [6]): 11 µM

Compound: c1nc(C2CCCNC2)cc(N2C[C@@H]3C[C@@H]4C[C@H](C3)N[C@@H]2C4)n1 (stereo partly drawn) [Compound 143]
inhibition at 10 µM (Arf6): ~31%

Compound: COc1ccc(-c2c(Cc3ccccc3)nn3c(=O)cc(C)[nH]c23)cc1 [NAV-3745, reference compound]
VEGF-induced retinal permeability ([3]; mice, 500 ng single intraocular injection with VEGF 50 ng (FIG. 6)): no effect

Compound: C[C@@H]1C[C@H]2[C@@H]3CCC4=CC(=O)C=C[C@]4(C)[C@@]3(F)[C@@H](O)C[C@]2(C)[C@@]1(O)C(=O)CO [dexamethasone, Dexamethasone, reference compound]
number of cells in the lung fluid (BALF) [4]: reduced the number of cells | protein concentration in the lung fluid (BALF) [4]: reduced

Compound: Avastin
VEGF-induced retinal permeability ([3]; mouse, not told): reduced VEGF-induced retinal permeability | VEGF-induced retinal permeability [5]: reduced VEGF-induced retinal permeability

Compound: Enbrel
inflammation as measured by the arthritic index [1]: reduced inflammation

Second part, led by results:

IC50 (Arf6; [6]): 30 µM
Compound: CCCc1cc(=O)[nH]c(SCc2cc(=O)n3cc(Br)ccc3n2)n1 [Compound 132]

IC50 (Arf6; [6]): 13 µM
Compound: Cn1c(N)c(C(=O)COC(=O)c2ccccc2SCc2ccc(C#N)cc2)c(=O)[nH]c1=O [Compound 134]

IC50 (Arf6; [6]): 16 µM
Compound: O=C1/C(=N/Nc2nc3ccccc3s2)C(c2ccccc2)=NN1c1nc(-c2ccccc2)cs1 [Compound 135]

IC50 (Arf6; [6]): 16 µM
Compound: Fc1ccc(C2CC(c3cccs3)=NN2c2nc(-c3ccc(-c4ccccc4)cc3)cs2)cc1 (stereo not drawn) [Compound 136]

IC50 (Arf6; [6]): 17 µM
Compound: CSc1nnc2c(n1)OC(c1cc(O)ccc1[N+](=O)[O-])Nc1ccccc1-2 (stereo not drawn) [Compound 137]

IC50 (Arf6; [6]): 17 µM
Compound: O=c1[nH]c(CSc2ncnc3sccc23)nc2ccsc12 [Compound 138]

IC50 (Arf6; [6]): 19 µM
Compound: O=C(COC(=O)c1cc2ccccc2[nH]1)NCCSc1ccc(Cl)cc1 [Compound 139]

IC50 (Arf6; [7]): 29 µM
Compound: O=c1c(-c2cccc3ccccc23)c(C(F)(F)F)oc2cc(O)ccc12 [Compound 140]

IC50 (Arf6; [7]): 31 µM
Compound: O=C1c2ccccc2C(=O)C1C1=NC2c3ccccc3OC2S1 (stereo not drawn) [Compound 141]

IC50 (Arf6; [6]): 1.2 µM
Compound: Fc1ccc(C2=CCN(c3nc(-c4ccncc4)nc4c3CNC4)CC2)cc1 [Compound 142]

inhibition at 10 µM (Arf6): ~35%
Compound: CCCCC1CCCN1c1cc(C2CCNCC2)ncn1 (stereo not drawn) [Compound 144]

VEGF-induced retinal permeability ([3]; mouse, not told): little effect
Compound: SU4312 [reference compound]
area of neovascularization [2]: reduced the area of neovascularization
